How the values were obtained:
[1] = tested on: AMPA induced rat hippocampal excitotoxic damage; assay: Hippocampal CA1 lesion area (cresyl violet) after stereotaxic intrahippocampal microinjection, AMPA excitotoxicity model; assay type: in vivo; settings: for area of hippocampal CA1 pyramidal layer lesion: rat dorsal hippocampus, two injections 2 h apart (5.4 mM AMPA and/or 20 μM glibenclamide), 24 hours after lesion, mean ± SEM
Procedure: (§1) In this neurodegenerative model, rats were anaesthetized with equithesin (a mixture of chloral hydrate and sodium pentobarbitone; 0.3 ml/100 g body wt, i.p.), and placed on a Kopf stereotaxic frame with the incisor bar set at −3.3 mm. Intracerebral injections aimed at the dorsal hippocampus were performed at 3.3 mm caudal to bregma, 2.2 mm lateral, and 2.9 mm ventral from dura (cf. G. Paxinos et al., “The rat brain in stereotaxic coordinates”, Sydney: Academic Press 1986). A volume of 0.5 μl was injected over a period of 5 min.
(§2) Four different groups of rats received two injections in a 2-hour interval as follows: a) sham rats (n=4) received two injections of PBS; b) AMPA rats (n=4) received the first injection of 5.4 mM AMPA and the second of PBS; c) glibenclamide rats (n=4) received two injections of 20 μM glibenclamide; d) AMPA+glibenclamide rats (n=4) received 5.4 mM AMPA+20 μM glibenclamide in the first injection and 20 μM glibenclamide in the second injection. All rats were sacrified 24 hours after the lesion.
(§3) Rats were transcardially perfused with 300 ml of 0.1 M phosphate buffer (PB, pH 7.4) followed by 300 ml ice-cold fixative (flow rate 20 ml/min). The fixative consisted of 4% (w/v) paraformaldehyde in PB. Brains were removed, crioprotected with 15% (w/v) sucrose in PB and then, frozen with dry ice.
Cryostat sections (12 μm) were obtained at the level of dorsal hippocampus (−3.3 mm to bregma). Isolectine B4 (IB4) histochemistry was performed to identify the microglial reaction (cf. C. A. Colton et al., J. Histochem. Cytochem. 1992, vol. 40, pp. 505-12). The hippocampal morphology was studied in Cresyl violet stained sections. […] These parameters were analyzed using a computer-assisted image analysis system (OPTIMAS®, BioScan Inc., Washington, USA). IB4-stained reactive microcytes were counted at ×100 magnification using an ocular grid mounted on a transmission light microscope (Axiolab, Zeiss, Göttingen, Germany). […] Results are expressed as mean ± SEM.

[2] = tested on: hippocampal microglial reaction; assay: Microglial reaction (IB4 histochemistry) after stereotaxic intrahippocampal microinjection, AMPA excitotoxicity model; assay type: in vivo, rat; settings: for density of reactive microcytes (IB4-stained) / hippocampal microgliosis area: rat dorsal hippocampus, 24 hours after lesion, mean ± SEM, n=4; for hippocampal microgliosis area: two 0.5 μl injections 2 h apart (5.4 mM AMPA and/or 20 μM glibenclamide)
Procedure: as §1, §2, §3
Cryostat sections (12 μm) were obtained at the level of dorsal hippocampus (−3.3 mm to bregma). Isolectine B4 (IB4) histochemistry was performed to identify the microglial reaction (cf. C. A. Colton et al., J. Histochem. Cytochem. 1992, vol. 40, pp. 505-12). The hippocampal morphology was studied in Cresyl violet stained sections. The area of lesion and the microgliosis evaluation were performed on cresyl violet and IB4-positive stained sections respectively. These parameters were analyzed using a computer-assisted image analysis system (OPTIMAS®, BioScan Inc., Washington, USA). IB4-stained reactive microcytes were counted at ×100 magnification using an ocular grid mounted on a transmission light microscope (Axiolab, Zeiss, Göttingen, Germany). One-way ANOVA was used to compare differences between groups, followed by the LSD post-hoc test. Results are expressed as mean ± SEM.

[3] = rat AMPA hippocampal excitotoxicity model, 20 μM glibenclamide

Structure (SMILES) | area of hippocampal CA1 pyramidal layer lesion [1] [mm^2] | density of reactive microcytes (IB4-stained) [2] [cells/mm^2] | hippocampal microgliosis area [2] [mm^2] | effect on hippocampal lesion (in words) [1, 3] | effect on microglial activation (in words) [2, 3]
Cc1onc(O)c1CC(N)C(=O)O (stereo not drawn) [AMPA, α-amino-3-hydroxy-5-methylisoxazole-4-propionic] | 0.130±0.015 | 645±59 | 0.44±0.07 | – | –
COc1ccc(Cl)cc1C(=O)NCCc1ccc(S(=O)(=O)NC(=O)NC2CCCCC2)cc1 [glibenclamide] | 0.012±0.0017 | 614±91 | 0.16±0.03 | avoids hippocampal excitotoxic damage | potentiates microglial activation
